Reference: US20040044026A1, “3-Substituted quinuclidines and their use as nicotinic agonists” (priority 2000, published 2004)
Counter-ions that a name gives are not always drawn. Like-named read-outs stand apart in the source and are kept apart here.

Assays:
[1] = molecular target: α4β2-subtype of nicotinic receptors (Rattus norvegicus, UniProt P09483+P12390); assay: in vitro inhibition of 3H-cytisine binding
Source text: the in vitro inhibition ^3H-cytisine binding, which is a standard assay for determining selective binding to α4β2 subtype of nicotinic receptors, and/or
(§1) Such standard assays are described in e.g. WO 99/21834.
(§2) In this example the affinity of compounds of the invention for nicotinic acetylcholine receptors are investigated using standard assays described in WO 99/21834.
Next the in vitro inhibition ^3H-cytisine binding, which is a standard assay for determining selective binding to α4β2-subtype of nicotinic receptors, was determined.

[2] = molecular target: α7-subtype of nicotinic receptors (Rattus norvegicus, UniProt Q05941); assay: biochemical; format: binding
Sequence of α7-subtype of nicotinic receptors (Q05941 23-502): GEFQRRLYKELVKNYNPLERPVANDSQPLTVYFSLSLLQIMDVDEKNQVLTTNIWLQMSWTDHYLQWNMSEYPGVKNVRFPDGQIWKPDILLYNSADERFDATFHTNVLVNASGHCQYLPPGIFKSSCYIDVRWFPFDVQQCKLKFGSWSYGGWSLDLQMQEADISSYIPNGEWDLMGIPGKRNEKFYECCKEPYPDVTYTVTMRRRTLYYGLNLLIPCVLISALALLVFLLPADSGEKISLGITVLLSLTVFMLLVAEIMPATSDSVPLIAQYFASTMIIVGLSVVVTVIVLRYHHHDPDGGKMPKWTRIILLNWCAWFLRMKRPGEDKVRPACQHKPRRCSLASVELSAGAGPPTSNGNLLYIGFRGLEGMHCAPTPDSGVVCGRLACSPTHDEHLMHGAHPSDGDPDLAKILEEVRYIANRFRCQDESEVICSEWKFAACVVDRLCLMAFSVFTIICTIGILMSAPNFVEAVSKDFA

[3] = molecular target: nicotinic receptors (non-selective); assay: in vitro inhibition of 3H-epibatidin binding; conditions: radioligand 3H-epibatidin
Source text: the in vitro inhibition of ^3H-epibatidin binding, which is a standard assay for determining non-selective binding to nicotinic receptors,
as §1, §2
First the in vitro inhibition of ^3H-epibatidin binding, which is a standard assay for determining non-selective binding to nicotinic receptors, was determined.

Sequence of α4β2-subtype of nicotinic receptors (P09483 31-630): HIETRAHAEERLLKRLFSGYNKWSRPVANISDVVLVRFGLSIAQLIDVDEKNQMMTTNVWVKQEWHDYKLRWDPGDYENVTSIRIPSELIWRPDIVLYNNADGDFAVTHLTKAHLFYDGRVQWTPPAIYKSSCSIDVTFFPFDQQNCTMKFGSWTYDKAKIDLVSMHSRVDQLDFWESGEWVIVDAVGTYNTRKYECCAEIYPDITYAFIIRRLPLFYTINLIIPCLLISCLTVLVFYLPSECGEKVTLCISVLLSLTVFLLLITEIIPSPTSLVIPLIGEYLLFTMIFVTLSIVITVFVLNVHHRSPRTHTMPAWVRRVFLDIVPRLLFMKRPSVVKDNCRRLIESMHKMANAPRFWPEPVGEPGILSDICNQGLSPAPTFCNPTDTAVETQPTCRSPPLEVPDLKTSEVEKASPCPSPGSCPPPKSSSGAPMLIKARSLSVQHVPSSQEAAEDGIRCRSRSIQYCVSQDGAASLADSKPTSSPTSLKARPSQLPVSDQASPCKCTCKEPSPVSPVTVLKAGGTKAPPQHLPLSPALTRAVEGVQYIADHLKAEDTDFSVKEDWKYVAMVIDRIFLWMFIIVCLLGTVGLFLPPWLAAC
Sequence of α4β2-subtype of nicotinic receptors (P12390 25-500): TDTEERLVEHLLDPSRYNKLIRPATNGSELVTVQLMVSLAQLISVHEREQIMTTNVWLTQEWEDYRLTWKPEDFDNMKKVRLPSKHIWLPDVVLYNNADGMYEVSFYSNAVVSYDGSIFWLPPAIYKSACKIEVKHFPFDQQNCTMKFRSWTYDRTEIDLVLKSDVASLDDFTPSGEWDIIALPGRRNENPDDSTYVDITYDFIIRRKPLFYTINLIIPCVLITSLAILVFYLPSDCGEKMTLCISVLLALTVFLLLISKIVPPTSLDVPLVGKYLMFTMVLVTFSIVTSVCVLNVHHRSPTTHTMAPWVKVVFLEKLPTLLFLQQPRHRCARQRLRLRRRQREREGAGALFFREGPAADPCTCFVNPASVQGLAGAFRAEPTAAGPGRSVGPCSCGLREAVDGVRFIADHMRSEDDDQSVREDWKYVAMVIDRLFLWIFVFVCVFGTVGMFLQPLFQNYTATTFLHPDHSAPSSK

Row | SMILES | IC50 [1] [µM] | IC50 [2] [nM] | IC50 [3] [µM] | IC50 ([1]; radioligand 3H-cytisine, read-out: in vitro Inhibition of Binding (IC50) 3H-cytisine binding) [µM]
1 | c1ccc2cc(C3CN4CCC3CC4)ccc2c1 (racemic) [Compound C1, (±)-3-(2-Naphthyl)-quinuclidine fumaric acid salt] | 6 | 150 | 7.5 | –
2 | C1=C(c2ccc3ccccc3c2)C2CCN1CC2 [Compound B1, 3-(2-Naphthyl)-quinuclidine-3-ene fumaric acid salt] | – | 58 | 17 | 10
